Data published in PMC4552745, “Novel Gallate Triphenylphosphonium Derivatives with Potent Antichagasic Activity” (PLoS ONE, 2015).

Legend:
[1] = tested on: T. cruzi trypomastigotes mitochondrial transmembrane potential (ΔΨm); experiment: Mitochondrial membrane potential assessment by JC-1; assay type: cell-based, Trypanosoma cruzi; conditions: 1 μM, 2 hours, Fig 5A bottom panel; FCCP 100 μM positive control
Experimental: For the determination of mitochondrial membrane potential by JC-1, we adapted the method described by Cossariza and Savioli (2001). In total, 5 x 10^6 trypomastigotes were seeded in 24-well plates in 1 mL of RPMI medium without FBS. The parasites were exposed to 0.1 or 1 μM of the different TPP^+ derivatives for 2 hours; alternatively, the parasites were exposed to 100 μM FCCP (Sigma Aldrich, USA) for 15 min as a positive control of the uncoupling of mitochondrial respiration. The cells were then washed with 500 μL of PBS and centrifuged at 1500 x g for 5 min. The parasites were then resuspended in 1 mL of PBS at 37°C. JC-1 (Molecular Probes, Applied Biosytems, USA) 1 mg/mL in DMSO was added at a final concentration of 5 μg/mL, and the mixtures were incubated for 15 min at 37°C in the dark. Next, the samples were centrifuged at 1500 x g for 5 min, and the supernatants, which contained unincorporated JC-1, were discarded. The pellet was suspended in PBS (1 mL), and fluorescence was measured using a FACSAria-III flow cytometer (BD Biosciences, USA). We used 488 nm as the excitation wavelength; the emission of JC-1 monomers was detected using the FITC filter (530/30), and the JC-1 aggregates were detected using the PE filter (585/42). Each measurement involved 5,000 events. The data were analyzed using FACSDiva 6.1 software.

mouse = tested on: mouse; parameters: method as in PMID 24568614; conditions: 15 mg/kg; cited from earlier work
[2] = tested on: T. cruzi in infected RAW 264.7 cells; experiment: Parasite DNA load by real-time PCR in infected RAW cells; assay type: cell-based, Trypanosoma cruzi; conditions: for parasite's DNA load: 1 μM, qPCR, 48 hours; for parasite load (qPCR): infected RAW cells, 48 hours after treatment, Fig 4
Excerpt: DNA from infected RAW cells (murine macrophages, ATCC number: TIB-71) was isolated using Wizard Genomic DNA Purification Kit (Promega, USA) following the manufacturer’s instructions. DNA was quantified through […] absorbance measurements using a Varioskan spectrophotometer (Thermo Scientific, USA). To evaluate the parasite DNA load, we used a TaqMan-Duplex system, as described previously. To amplify an 84-bp T. cruzi satellite DNA sequence, we used the following primers: TcSt 4-Fw (5’-[…]-3’) and TcSt 1-Rev (5’-[…]-3’) and the TcSt-1 probe (5’-FAM-[…]-BHQ-1-3’). As an endogenous control, we used the Mus-F (5’-[…]-3’) and Mus-R (5’-[…]-3’) primers coupled with the MM-1 probe (5’-HEX-AAAGCATCTGCCTCCG-BHQ-1-3’) to amplify a 67-bp Mus musculus GAPDH sequence. The primers and probes were designed using Primer Express 3.0 Software (Applied Biosystems, USA) and manufactured by Integrated DNA Technologies (Coralville, IA, USA). The PCR reactions were performed using an ABI7300 real-time thermocycler (Applied Biosystems, USA). […] ROX was used as a reference dye. For both TaqMan assays, the thermal cycle consisted of a polymerase activation step carried out at 95°C for 10 min (one cycle) and a two-step amplification phase: 95°C for 15 s and 55°C for 45 s (40 cycles). Fluorescence was measured at the end of each amplification cycle. The data were analyzed using 7300 System SDS software with the SDS relative quantitation plug-in (Applied Biosystems, USA). All of the data were analyzed by the 2^-∆∆CT method, comparing the CTs of the T. cruzi gene versus that of GAPDH as well as comparing all of the samples with the controls. The parasite load is expressed as the relative DNA load compared with the controls.

| SMILES | JC-1 red fluorescence (aggregates) [1] | safety in mouse models (mouse) | parasite's DNA load [2] | parasite load (qPCR) [2] |
| --- | --- | --- | --- | --- |
| O=C(OCCCCCCCCCC[P+](c1ccccc1)(c1ccccc1)c1ccccc1)c1cc(O)c(O)c(O)c1.[Br-] [TPP^+-C10, triphenyl(10-((3,4,5-trihydroxybenzoyl)oxy)-decyl) phosphonium bromide] | induced mitochondrial changes, though to a lower extent than FCCP | safe | 10 % of control measurements | reduced the parasite load in a concentration-dependent manner |
| O=C(OCCCCCCCCCCCC[P+](c1ccccc1)(c1ccccc1)c1ccccc1)c1cc(O)c(O)c(O)c1.[Br-] [TPP^+-C12, triphenyl(12-((3,4,5-trihydroxybenzoyl)oxy)-dodecyl) phosphonium bromide] | induced mitochondrial changes, though to a lower extent than FCCP | – | 13 % of control measurements | reduced the parasite load in a concentration-dependent manner |
